The source of these data is paper PMC12119672, “Development and evaluation of [^11C]DPA-813 and [^18F]DPA-814: novel TSPO PET tracers insensitive to human single nucleotide polymorphism rs6971” (European Journal of Nuclear Medicine and Molecular Imaging, 2025).

Several values for one entry are separate records, joined by “and”; a condition that tells them apart may be missing. Identical values can stand only once. Marks after values point to notes of the source that are not given here.

For data set [1] the following is noted: distribution coefficient; cited from earlier work.
Data set [2] addresses T1, A147T human TSPO (Homo sapiens, UniProt P30536).
T1 construct: expressed in transfected cells
Nature of the data set: Competition radioligand binding vs [3H]PK 11195, membranes of transfected HEK-293T cells (A147T TSPO). The conditions noted are these: vs [3H]PK 11195 (10 nM), HEK-293T membranes, mean ± SEM; read-out: Ki A147T hTSPO. Here is the method:
(§1) Binding affinities (Ki) to wild-type (WT) and A147T human TSPO were assessed using a previously published method. HEK-293T cells were stably transfected with WT and A147T TSPO. Membranes were isolated from each cell line using an Ultra-Turrax hand-held homogeniser. These cells have been previously validated as an in vitro model for low- and high-affinity TSPO binding. […] Non-specific binding was determined using a saturating concentration (1 µM) of non-tritiated PK 11195. This non-specific binding contributed less than 10% of total binding. Reactions were halted by filtering through a 96-well glass-fibre filter plate (Millipore), followed by eight washes with ice-cold 50 mM Tris HCl. Microscint 0 was added to the plate and resultant radioactivity-related photons were collected by a Microbeta 2450 (PerkinElmer). Ki values were fit to a competition binding curve fit on non-specific binding-corrected data using GraphPad Prism 10.0 (GraphPad). Results are presented as mean ± standard error of the mean (SEM) from at least three independent experiments. Binding affinities (Ki) to rat TSPO were measured in duplicate by Eurofins Panlabs Discovery Services (assay #226700) (Supplementary Fig. 12). Single-dose (10 µM) off-target in vitro screening was performed in duplicate by Eurofins Panlabs Discovery Services (Supplementary Table 5).
(§2) In vitro binding affinities (Ki) for human TSPO were initially assessed using a competition radioligand assay against [^3H]PK 11195 in our well-characterised assay using membranes isolated from transfected HEK-293T cells overexpressing either WT or A147T TSPO [32]. This structure-activity relationship study will be reported in a separate publication. […] Data for DPA-713 and DPA-714 are included for comparison.

Data set [3] deals with T2, WT human TSPO (Homo sapiens, UniProt P30536).
T2 construct: expressed in transfected cells
T2 sequence (P30536 whole entry T147A): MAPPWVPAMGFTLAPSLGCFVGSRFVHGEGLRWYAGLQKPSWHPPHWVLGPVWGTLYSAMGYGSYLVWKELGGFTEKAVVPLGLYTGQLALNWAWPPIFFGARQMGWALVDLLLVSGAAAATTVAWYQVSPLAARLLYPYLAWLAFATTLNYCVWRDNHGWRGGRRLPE
The experiment in a line: Competition radioligand binding vs [3H]PK 11195, membranes of transfected HEK-293T cells (WT TSPO). The following applies: vs [3H]PK 11195 (10 nM), HEK-293T membranes, mean ± SEM; read-out: Ki WT hTSPO. The method, then:
as §1, §2

Data set [4] is described as follows: Ex vivo metabolite analysis (plasma and brain) in wild-type rats. Also on record: species or system rat. The following applies: i.v. Here is the method: Metabolite analysis was conducted following the method outlined in a previous study. Wistar/RccHan (WIST) rats (Inotiv, the Netherlands) received intravenous injections of either [^11C]DPA-813 (30–50 MBq) or [^18F]DPA-814 (20–30 MBq). Rats were euthanized at 5, 15, and 45 min post-injection (n = 4 per time point). Plasma was separated from blood then processed through a C18 Sep-Pak (Waters, Milford, MA, USA). After washing with 3 mL of water to isolate the polar fraction, the non-polar fraction was eluted using 2 mL of methanol and 1 mL of water and subsequently analyzed by HPLC. The brain tissue was collected and homogenized in a mixture of MeCN and H2O (50/50, 4 mL) before centrifugation (5 min, 4000 rpm, 20 °C, Hettich Universal 32). The obtained supernatant was separated from the precipitate and analyzed via HPLC. Analytical HPLC was performed using a Dionex UltiMate 3000 HPLC system equipped with Chromeleon software (version 6.8), utilizing a Gemini C18 5-µm (10 × 250 mm) column (Phenomenex, Torrance, CA, USA). All fractions were assessed for radioactivity using a Wizard Gamma counter 1470 or 2480 (Wallac/PerkinElmer, Waltham, MA, USA).

Data set [5] is described as follows: Ex vivo biodistribution in wild-type rats. The following applies: i.v. Set-up: species or system rat. Here is the method: Wistar/RccHan (WIST) rats from Inotiv, the Netherlands, received intravenous injections via a tail vein catheter of either [^11C]DPA-813 (30–50 MBq) or [^18F]DPA-814 (20–30 MBq). The rats were euthanized at 5, 15, and 45 min post-injection (n = 4 per time point). Blood, heart, lungs, liver, spleen, kidney, urine, bone, brain, duodenum, small intestine, skin, and muscle were collected, weighed, and their radioactivity measured using a Wizard Gamma counter 1470 or 2480 (Wallac/PerkinElmer, Waltham, MA, USA). Entire organs were collected, except for larger organs like the liver and lungs, where only a portion was dissected. The radioactivity uptake in each organ was expressed as the percentage of the injected dose per gram of tissue (%ID/g).

Data set [6] concerns EAE rat model (spinal cord). Nature of the data set: PET imaging in the EAE rat model. The data set is classed as in vivo. The conditions noted are these: dynamic PET 60 min, peak of clinical symptoms.
The test system of data set [7] is TSPO in human MS tissues. Nature of the data set: Autoradiography on genotyped human MS brain tissue (HAB, MAB, LAB). The data set is classed as binding. The text has this: Brain tissues from MS patients (n = 7) were used in this study and were obtained from the MS centre of the Amsterdam University Medical Centers (AUMC). For some patient material, several brain tissues were available. The MS centre received permission from the Ethical Committee of the AUMC (Amsterdam, The Netherlands) to perform autopsies for tissue use and access to medical records for research purposes. All patients and controls, or their next of kin, had given informed consent for autopsy and use of brain tissue for research purposes.
TSPO rs6971 SNP was determined with a Taqman assay (C_2512465_20, ThermoFisher Scientific, The Netherlands). DNA was isolated from human MS brain tissue cryosections using a QIAmp mini kit from Qiagen according to the manufacturer’s recommendation. The concentration of the isolated DNA was determined on a nanodrop (NanoVue Plus, Biochrom). DNA concentration ranged from 45 to 246 µg/mL. QPCR was performed on a QuantStudio (Applied Biosystems, The Netherlands). Synthetic DNA (300 bp) for the two TSPO SNP alleles, rs6971-A, and rs6971-G, was used as a control for the Taqman assay. DNA samples were diluted 1/100 in milliQ water, and 4.5 µL was used for the QPCR. Control DNA sequences were reconstituted in 10 ng/mL in milliQ water. The final QPCR solution contained 5 µL TaqPath proAmp master mix (ThermoFisher Scientific, The Netherlands), 0.5 µL Taqman SNP, and 4.5 µL DNA. Results of the Taqman assay are summarised in Supplementary Tables 4 and Supplementary Fig. 2.
Human MS tissue cryosections (20 μm) were mounted on glass slides, air-dried, and stored at − 80 °C until needed. Prior to use, the sections were washed three times in PBS for 5 min each, then dried under an airflow. […] For blocking experiments, tissue sections were co-incubated with PK 11195 (10 µM) and the tracer. After incubation, sections were washed for 90 s three times each in ice-cold PBS and then dipped in deionized water twice. The sections were air-dried and exposed to a phosphor screen BAS-IP SR 2025 (General Electric, Eindhoven, The Netherlands). Phosphor screens were subsequently imaged using a Typhoon FLA 7000 imager (General Electric, Eindhoven, The Netherlands), and signal intensity was quantified using ImageLab software (BioRad, Lunteren, The Netherlands).

The target of data set [8] is T3, rat TSPO (Rattus norvegicus, UniProt P16257).
T3 construct: Heart of male Wistar derived rats weighing 175 ± 25 g are used to prepare peripheral benzodiazepine membrane receptors [TSPO]; tissue Eurofins Panlabs Discovery Services assay #226700; host or cells: rat heart (male Wistar derived)
Nature of the data set: Competitive binding to rat TSPO vs [3H]PK 11195 (Eurofins assay #226700, rat heart membranes). The following applies: vs DPA-713 / DPA-714. The method, then:
as §1
Supplementary Figure 12 Dose-response curves and binding affinities of DPA-813 and DPA-814 showing competitive binding to rat TSPO vs [^3H]PK 11195. Method from Eurofins: Heart of male Wistar derived rats weighing 175 ± 25 g are used to prepare peripheral benzodiazepine membrane receptors [TSPO] in modified Tris-HCl buffer pH 7.5. A 0.25 mg aliquot is incubated with 0.3 nM [^3H]PK 11195 for 15 minutes at 25 °C. Non-specific binding is estimated in the presence of 100 μM Dipyridamole. Membranes are filtered and washed, the filters are then counted to determine [^3H]PK 11195 specifically bound.

T1 sequence (P30536 whole entry, stated change not applied): as the sequence (P30536 whole entry T147A) above, with A147T counted along it

For `CCN(CC)C(=O)Cc1c(-c2ccc(OC)cc2)nn2c(C)cc(C)nc12` [DPA-713], the logD7.4 in data set [1] is on record as 2.4 ^b.
For the compound `CCN(CC)C(=O)Cc1c(-c2ccc(OCCF)cc2)nn2c(C)cc(C)nc12` [DPA-714, reference compound], the Ki (in general, a measure of affinity in units of concentration, obtained from inhibition or displacement) in data set [2] was found to be 0.26 ± 0.0936 µM; in data set [3] it was 0.0209 ± 0.005 µM. In data set [1], the logD7.4 is on record as 2.4 ^b.
Regarding `Cc1cc(C)n2nc(-c3ccc(OCC[18F])cc3)c(CC(=O)N(C)c3ccccc3)c2n1` [[^18F]DPA-814], in data set [4] (5 min post-injection), the “Brain, Parent (intact tracer)” value came out at 99.5 ± 0.2% and the “Plasma, Parent (Intact tracer)” value is given as 88.1 ± 8.5%. In data set [4] (15 min post-injection), the “Brain, Parent (intact tracer)” value stood at 99.5 ± 0.3% and the “Plasma, Parent (Intact tracer)” value was found to be 89.4 ± 0.9%. In data set [4] (45 min post-injection), the “Brain, Parent (intact tracer)” value amounted to 99.3 ± 0.3%; the “Plasma, Parent (Intact tracer)” value is 79.1 ± 6.6% and 79%. In data set [5] (5 min post-injection), the “Biodistribution, Blood” value was 0.41 ± 0.2 %ID/g; the “Biodistribution, Bone” value is reported as 0.27±0.1 %ID/g; the “Biodistribution, Brain” value is reported as 0.25 ± 0.03 %ID/g; the “Biodistribution, Duodenum” value is given as 1.44±0.1 %ID/g. For the same compound, in data set [5] (5 min post-injection), the “Biodistribution, Heart” value came out at 3.31±0.3 %ID/g; the “Biodistribution, Kidney” value is listed as 3.81±0.5 %ID/g; the “Biodistribution, Liver” value came to 1.82±0.5 %ID/g; the “Biodistribution, Lungs” value is recorded as 21.91±1. %ID/g. In addition, in data set [5] (5 min post-injection), the “Biodistribution, Skin” value is 0.09±0.0 %ID/g; the “Biodistribution, Small intestine” value stood at 0.92±0.1 %ID/g; the “Biodistribution, Tail” value worked out at 6.89±9.8 %ID/g; the “Biodistribution, Urine” value is on record as 0.01±0.0 %ID/g. Also, in data set [5] (5 min post-injection), the “Biodistribution, muscle” value was 0.05±0.0 %ID/g and the “Biodistribution, spleen” value is 3.00±0.6 %ID/g. For the same compound, in data set [5] (15 min post-injection), the “Biodistribution, Blood” value turned out to be 0.31±0.1 %ID/g; the “Biodistribution, Bone” value came out at 0.29±0.1 %ID/g; the “Biodistribution, Brain” value was found to be 0.28±0.0 %ID/g; the “Biodistribution, Duodenum” value turned out to be 1.71±0.2 %ID/g. In data set [5] (15 min post-injection), the “Biodistribution, Heart” value is listed as 4.39±0.2 %ID/g; the “Biodistribution, Kidney” value came out at 4.59±0.6 %ID/g; the “Biodistribution, Liver” value was determined as 2.56 ± 0.2 %ID/g; the “Biodistribution, Lungs” value is 24.43±2. %ID/g. In addition, in data set [5] (15 min post-injection), the “Biodistribution, Skin” value came to 0.12±0.1 %ID/g; the “Biodistribution, Small intestine” value is on record as 1.26±0.1 %ID/g; the “Biodistribution, Tail” value came to 0.70±0.2 %ID/g; the “Biodistribution, Urine” value came out at 0.01±0.0 %ID/g. Moreover, in data set [5] (15 min post-injection), the “Biodistribution, muscle” value is recorded as 0.07±0.0 %ID/g and the “Biodistribution, spleen” value was determined as 4.85±0.2 %ID/g. In data set [5] (45 min post-injection), the “Biodistribution, Blood” value is 0.15 ± 0.01 %ID/g; the “Biodistribution, Bone” value worked out at 0.22±0.0 %ID/g; the “Biodistribution, Brain” value worked out at 0.20 ± 0.02 %ID/g; the “Biodistribution, Duodenum” value is given as 1.43±0.1 %ID/g. In data set [5] (45 min post-injection), the “Biodistribution, Heart” value worked out at 4.05±0.3 %ID/g; the “Biodistribution, Kidney” value was 4.10±0.2 %ID/g; the “Biodistribution, Liver” value came out at 1.97±0.4 %ID/g; the “Biodistribution, Lungs” value came to 18.05±3. %ID/g. Also, in data set [5] (45 min post-injection), the “Biodistribution, Skin” value came to 0.12±0.0 %ID/g; the “Biodistribution, Small intestine” value is reported as 1.23±0.2 %ID/g; the “Biodistribution, Tail” value amounted to 1.30±0.5 %ID/g; the “Biodistribution, Urine” value was 0.08±0.1 %ID/g. Moreover, in data set [5] (45 min post-injection), the “Biodistribution, muscle” value came out at 0.08±0.0 %ID/g and the “Biodistribution, spleen” value stood at 5.45±1.6 %ID/g. For the same compound, the “higher uptake (AUC of time activity curve) in the spinal cord of EAE rats compared to CFA control” value in data set [6] is on record as 21%. Moreover, in data set [7] (HAB human MS tissue), the “ratio of the binding quantifications [18F]DPA-814/[18F]DPA-714” value (from here on “ratio of the binding quantifications”) was determined as 0.9 ± 0.1. Also, the “ratio of the binding quantifications” value in data set [7] (LAB human MS tissue) is 12.3 and 12. The “ratio of the binding quantifications” value in data set [7] (MAB human MS tissue) amounted to 1.5 ± 0.2. The “higher affinity to rat TSPO compared to the parent compound” value in data set [8] is recorded as 35 fold.
